Data: patent US20250049759A1, “PHARMACEUTICAL PREPARATION FOR ASSISTING IN PROMOTING SLEEP AND PREPARATION METHOD THEREOF” (Changde Jizhi Biological Technology Co., Ltd, priority 2023, published 2025)

Tested on: Kunming mice
Experiment: Effects on sleep in mice: pentobarbital sodium of suprathreshold dose, sleep latency and duration
Type: in vivo
Settings: gavage once a day for two consecutive weeks (diazepam 0.75 mg/kg; melatonin 75 mg/kg; embodiment/comparative raw material 3.5 g/kg), 50 mg/kg pentobarbital sodium i.p. 60 minutes after last administration, n=10
Description: • Test group 1: diazepam group. • Test group 2: melatonin group. • Test group 3: diazepam+embodiment 1 group. • Test group 4: diazepam+embodiment 4 group. • Test group 5: diazepam+embodiment 5 group. • Test group 6: diazepam+comparative example 1 group. • Test group 7: diazepam+comparative example 2 group.
Note: embodiments and comparative examples were concentrated and dried to obtain test raw materials.
Test animals: Kunming mice, 18-22 g. (specific pathogen free (SPF) grade, provided by the Pharmacology Department of Traditional Chinese Medicine, Beijing University of Chinese Medicine).
Test method: The mice were randomly divided into a control group and a test group. The test group 1: diazepam of 0.75 mg/kg was administrated by gavage once a day for two consecutive weeks. The test group 2: melatonin of 75 mg/kg was administrated by gavage once a day for two consecutive weeks. The test group 3 to test group 7: after administrating diazepam of 0.75 mg/kg by gavage, 3.5 g/kg of the raw material of the embodiment or comparative example is administrated once a day for two consecutive weeks. After 60 minutes of the last intragastric administration, the mice in each group were injected with 50 mg/kg pentobarbital sodium intraperitoneally, and the sleep latency and sleep duration of the mice in each group were recorded with the disappearance of righting reflex more than […] as the sleep standard.

SMILES	Sleep duration	Sleep latency
COc1ccc2[nH]cc(CCNC(C)=O)c2c1 [Test group 2, melatonin]	64.38 ± 3.70 min	4.38 ± 0.35 min
CN1C(=O)CN=C(c2ccccc2)c2cc(Cl)ccc21 [Test group 1, diazepam]	126.37 ± 6.17 min	2.47 ± 0.27 min
